In paper PMC10620772, “Design, synthesis, and biological evaluation of new pyrimidine-5-carbonitrile derivatives as novel anti-cancer, dual EGFR^WT/COX-2 inhibitors with docking studies” (RSC Advances, 2023):

What was measured:
Assay in all cases: NCI60 antitumor screening
Format in all cases: cell-based, human
[1] = test system: NCI/ADR-RES
[2] = test system: UACC-62
[3] = test system: LOX IMVI
[4] = test system: MDA-MB-435
[5] = test system: RXF 393
[6] = test system: NCI-H522
[7] = test system: MALME-3M
[8] = test system: SNB-75
[9] = test system: HL-60(TB)
[10] = test system: ACHN
[11] = test system: RPMI-8226
[12] = test system: HCC-2998
[13] = test system: SNB-19
[14] = test system: A498
[15] = test system: K-562
[16] = test system: SF-539
[17] = test system: OVCAR-4
[18] = test system: CCRF-CEM
[19] = test system: HT29
[20] = Homo sapiens, SF-539, five-dose
[21] = Homo sapiens, OVCAR-4, five-dose

Question: `N#Cc1c(-c2ccc(F)cc2)nc(SCc2ccc(F)cc2)nc1N1CCNCC1` [4f, 2-((4-Fluorobenzyl)thio)-4-(4-fluorophenyl)-6-(piperazin-1-yl) pyrimidine-5-carbonitrile] was tested. Which GI50 ([1]; Homo sapiens, NCI/ADR-RES, five-dose) did it give?
Answer: 13.7 µM

Question: And the CC50 ([1]; Homo sapiens, NCI/ADR-RES, five-dose, read-out: LC50 (the source's name))?
Answer: 67.5 µM

Question: What about the inhibition at 10 µM ([1]; Homo sapiens, 10 μM single dose, NCI/ADR-RES (ovarian cancer), read-out: growth inhibition percent (GI%)) of the same molecule?
Answer: > 100%

Question: What about the TGI ([1]; five-dose) of the same molecule?
Answer: 30.40 µM

Question: What about the GI50 ([2]; Homo sapiens, UACC-62, five-dose) of the same molecule?
Answer: 15.9 µM

Question: And the CC50 ([2]; Homo sapiens, UACC-62, five-dose, read-out: LC50 (the source's name))?
Answer: 56.2 µM

Question: And the inhibition at 10 µM ([2]; Homo sapiens, 10 μM single dose, UACC-62 (melanoma), read-out: growth inhibition percent (GI%))?
Answer: > 100%

Question: What about the TGI ([2]; five-dose) of the same molecule?
Answer: 29.90 µM

Question: What about the GI50 ([3]; Homo sapiens, LOX IMVI, five-dose) of the same molecule?
Answer: 2.28 µM

Question: And the CC50 ([3]; Homo sapiens, LOX IMVI, five-dose, read-out: LC50 (the source's name))?
Answer: 22.7 µM

Question: And the inhibition at 10 µM ([3]; Homo sapiens, 10 μM single dose, LOX IMVI (melanoma), read-out: growth inhibition percent (GI%))?
Answer: > 100%

Question: And the TGI ([3]; five-dose)?
Answer: 5.69 µM

Question: And the GI50 ([4]; Homo sapiens, MDA-MB-435, five-dose)?
Answer: 16.8 µM

Question: What about the CC50 ([4]; Homo sapiens, MDA-MB-435, five-dose, read-out: LC50 (the source's name)) of the same molecule?
Answer: 58.4 µM

Question: And the inhibition at 10 µM ([4]; Homo sapiens, 10 μM single dose, MDA-MB-435 (melanoma), read-out: growth inhibition percent (GI%))?
Answer: > 100%

Question: What about the TGI ([4]; five-dose) of the same molecule?
Answer: 31.30 µM

Question: And the CC50 ([5]; Homo sapiens, RXF 393, five-dose, read-out: LC50 (the source's name))?
Answer: 51.5 µM

Question: What about the inhibition at 10 µM ([5]; Homo sapiens, 10 μM single dose, RXF 393 (renal cancer), read-out: growth inhibition percent (GI%)) of the same molecule?
Answer: > 100%

Question: And the TGI ([5]; five-dose)?
Answer: 21.40 µM

Question: And the GI50 ([6]; Homo sapiens, NCI-H522, five-dose)?
Answer: 13.9 µM

Question: What about the CC50 ([6]; Homo sapiens, NCI-H522, five-dose, read-out: LC50 (the source's name)) of the same molecule?
Answer: 64.3 µM

Question: And the inhibition at 10 µM ([6]; Homo sapiens, 10 μM single dose, NCI-H522 (non-small cell lung cancer), read-out: growth inhibition percent (GI%))?
Answer: > 100%

Question: And the TGI ([6]; five-dose)?
Answer: 29.90 µM

Question: And the GI50 ([7]; Homo sapiens, Malme-3M, five-dose)?
Answer: 14.7 µM

Question: And the CC50 ([7]; Homo sapiens, Malme-3M, five-dose, read-out: LC50 (the source's name))?
Answer: 54.8 µM

Question: And the inhibition at 10 µM ([7]; Homo sapiens, 10 μM single dose, MALME-3M (melanoma), read-out: growth inhibition percent (GI%))?
Answer: > 100%

Question: What about the TGI ([7]; five-dose) of the same molecule?
Answer: 28.40 µM

Question: What about the GI% ([8]; 10 μM one-dose) of the same molecule?
Answer: 80.66%

Question: And the inhibition at 10 µM ([8]; Homo sapiens, 10 μM single dose, SNB-75 (CNS cancer), read-out: growth inhibition percent (GI%))?
Answer: 80.7%

Question: What about the GI50 ([9]; Homo sapiens, HL-60, five-dose) of the same molecule?
Answer: 7.66 µM

Question: And the CC50 ([9]; Homo sapiens, HL-60, five-dose, read-out: LC50 (the source's name))?
Answer: 63.8 µM

Question: And the inhibition at 10 µM ([9]; Homo sapiens, 10 μM single dose, HL-60(TB) (leukaemia), read-out: growth inhibition percent (GI%))?
Answer: > 100%

Question: And the TGI ([9]; five-dose)?
Answer: 24.00 µM

Question: What about the GI50 ([10]; Homo sapiens, ACHN, five-dose) of the same molecule?
Answer: 15 µM

Question: And the LC50 ([10]; Homo sapiens, ACHN, five-dose)?
Answer: 54.5 µM

Question: And the inhibition at 10 µM ([10]; Homo sapiens, 10 μM single dose, ACHN (renal cancer), read-out: growth inhibition percent (GI%))?
Answer: > 100%

Question: And the TGI ([10]; five-dose)?
Answer: 28.60 µM

Question: And the GI50 ([11]; Homo sapiens, RPMI-8226, five-dose)?
Answer: 6.75 µM

Question: And the CC50 ([11]; Homo sapiens, RPMI-8226, five-dose, read-out: LC50 (the source's name))?
Answer: 74.4 µM

Question: What about the inhibition at 10 µM ([11]; Homo sapiens, 10 μM single dose, RPMI-8226 (leukaemia), read-out: growth inhibition percent (GI%)) of the same molecule?
Answer: > 100%

Question: What about the TGI ([11]; five-dose) of the same molecule?
Answer: 24.60 µM

Question: What about the GI50 ([12]; Homo sapiens, HCC 2998, five-dose) of the same molecule?
Answer: 2.53 µM

Question: What about the CC50 ([12]; Homo sapiens, HCC 2998, five-dose, read-out: LC50 (the source's name)) of the same molecule?
Answer: 6.27 µM

Question: What about the inhibition at 10 µM ([12]; Homo sapiens, 10 μM single dose, HCC-2998 (colon cancer), read-out: growth inhibition percent (GI%)) of the same molecule?
Answer: > 100%

Question: What about the TGI ([12]; five-dose) of the same molecule?
Answer: 3.22 µM

Question: And the GI50 ([13]; Homo sapiens, SNB-19, five-dose)?
Answer: 14.9 µM

Question: What about the CC50 ([13]; Homo sapiens, SNB-19, five-dose, read-out: LC50 (the source's name)) of the same molecule?
Answer: 58.1 µM

Question: What about the inhibition at 10 µM ([13]; Homo sapiens, 10 μM single dose, SNB-19 (CNS cancer), read-out: growth inhibition percent (GI%)) of the same molecule?
Answer: 50.4%

Question: And the TGI ([13]; five-dose)?
Answer: 29.40 µM

Question: And the GI50 ([14]; Homo sapiens, A498, five-dose)?
Answer: 15.3 µM

Question: And the LC50 ([14]; Homo sapiens, A498, five-dose)?
Answer: 58.2 µM

Question: What about the inhibition at 10 µM ([14]; Homo sapiens, 10 μM single dose, A498 (renal cancer), read-out: growth inhibition percent (GI%)) of the same molecule?
Answer: < 10%

Question: What about the TGI ([14]; five-dose) of the same molecule?
Answer: 29.80 µM

Question: And the GI% ([15]; 10 μM one-dose)?
Answer: 99.28%

Question: And the GI50 ([15]; Homo sapiens, K562, five-dose)?
Answer: 3.76 µM

Question: And the CC50 ([15]; Homo sapiens, K562, five-dose, read-out: LC50 (the source's name))?
Answer: > 100 µM

Question: And the inhibition at 10 µM ([15]; Homo sapiens, 10 μM single dose, (leukaemia), read-out: growth inhibition percent (GI%))?
Answer: 99.3%

Question: What about the TGI ([15]; five-dose) of the same molecule?
Answer: 17.80 µM

Question: What about the GI50 [16, 20] of the same molecule?
Answer: 15.6 µM

Question: What about the LC50 [16, 20] of the same molecule?
Answer: 54.1 µM

Question: What about the inhibition at 10 µM ([16]; Homo sapiens, 10 μM single dose, SF-539 (CNS cancer), read-out: growth inhibition percent (GI%)) of the same molecule?
Answer: > 100%

Question: What about the TGI ([16]; five-dose) of the same molecule?
Answer: 29.00 µM

Question: And the GI50 [17, 21]?
Answer: 16.5 µM

Question: And the LC50 (lethal concentration, 50% cell kill) [17, 21]?
Answer: 68.7 µM

Question: And the inhibition at 10 µM ([17]; Homo sapiens, 10 μM single dose, OVCAR-4 (ovarian cancer), read-out: growth inhibition percent (GI%))?
Answer: > 100%

Question: And the TGI ([17]; five-dose)?
Answer: 33.60 µM

Question: And the GI% ([18]; 10 μM one-dose)?
Answer: 95.51%

Question: What about the GI50 ([18]; Homo sapiens, CCRF-CEM, five-dose) of the same molecule?
Answer: 14.9 µM

Question: And the CC50 ([18]; Homo sapiens, CCRF-CEM, five-dose, read-out: LC50 (the source's name))?
Answer: 76 µM

Question: What about the inhibition at 10 µM ([18]; Homo sapiens, 10 μM single dose, CCRF-CEM (leukaemia), read-out: growth inhibition percent (GI%)) of the same molecule?
Answer: 95.5%

Question: And the TGI ([18]; five-dose)?
Answer: 33.60 µM

Question: And the inhibition at 10 µM ([19]; Homo sapiens, HT-29, 10 μM single dose, HT29 (colon cancer), read-out: growth inhibition percent (GI%))?
Answer: > 100%

Question: What about the GI50 ([19]; Homo sapiens, HT-29, five-dose) of the same molecule?
Answer: 4.87 µM

Question: And the CC50 ([19]; Homo sapiens, HT-29, five-dose, read-out: LC50 (the source's name))?
Answer: 51.7 µM

Question: And the TGI ([19]; five-dose)?
Answer: 17.30 µM
